The test system of this assay is umbilical cord MSCs (P3-P5 cells). Briefly: agglomeration of cultured MSCs after adding ligustrazine hydrochloride and/or Shenmai injection (cell graphs). In kind it is cell-based, human. Conditions: Day 1 after addition, ligustrazine hydrochloride 40-80 mg/L, Shenmai injection 0.5% by volume, FIG. 1 to FIG. 9. The protocol: 2.9 A ligustrazine hydrochloride (GYZZ H20041175 injection of Harbin Medisan Pharmaceutical Co., Ltd., which follows the Second Supplement to the National Standard and can be directly injected into human bodies) and a Shenmai injection (GYZZ Z63021721 of Yunnan Phytopharmaceutical Co., Ltd., which follows the National Drug Standard (Amendment) WS3-B-3428-98-2010 and can be directly injected into human bodies) were added to P3-P5 cells respectively. The concentration of the ligustrazine hydrochloride was 40-80 mg/L and the Shenmai injection was 0.5% by volume. After culture for 24 hours, change the medium and culture for another one week, the cells grown to a fusion degree of 80-90% were collected and digested for tests. The products obtained in the steps are biodetected to eliminate etiological contamination.
The cells were divided into three groups: a. only the Shenmai injection was added; b. only the ligustrazine hydrochloride was added; and c. both the Shenmai injection and the ligustrazine hydrochloride were added for comparison.

Structures are written as SMILES. Structures can show the parent of a compound that is named as a salt.

The values that follow come from patent US11821005B2, “Umbilical cord mesenchymal stem cells (MSCs) and culture method and application thereof” (FOSHAN JINGZHUN JIEN HEALTH MANAGEMENT CONSULTING CO., LTD., priority 2019, dated 2023).

In the case of `Cc1nc(C)c(C)nc1C` [ligustrazine hydrochloride], the “agglomeration of the cells” value was “improved to some extent”.
